Source: US20230406873A1, “PROBES, SYSTEMS, AND METHODS FOR MAGNETIC RESONANCE PH SENSING” (The General Hospital Corporation, priority 2020, published 2023)
Where two headings read alike, the source gives them in different places. Marks after values point to notes of the source that are not given here.

How the values were obtained:
[1] = pH-potentiometry of ligand (protonation constants); type: physicochemical; details: 0.1 M NaCl, 310 K; for log KLH: KLHn = [HnL]/[H][Hn-1L]
Protocol: (§1) pH-potentiometric measurements: pH-potentiometric measurements were performed using an Orion ROSS Ultra pH electrode and temperature-controlled reaction vessel held at 310 K. A standardized solution of 0.10 M NaOH was used as the titrant. The electrode was calibrated prior to each titration by titrating a standardized HCl(aq) solution at ionic strength 0.10 using NaCl as the inert electrolyte with the standardized NaOH titrant. A working slope and intercept were generated by plotting mV as a function of calculated pH, which enabled direct conversion of electrode readings to [H^+] during sample titrations. pH values recorded during the titrations refers to hydrogen ion concentration. All titration samples were prepared in solutions of 0.10 M NaCl in distilled, de-ionized water. Ligand solutions were prepared by dissolving a weighed quantity into the electrolyte and concentration was calculated from the effective weight of the ligand. Moles ligand present in titrand was also confirmed by measuring the mol added NaOH required to span each inflection point. Solutions of 1:1 ligand: Fe were prepared by adding an appropriate volume of standardized FeCl3 in 0.088 M HCl solution to a weighed quantity of ligand, the solutions were then adjusted with water and 1 M NaCl to ionic strength 0.10. The data was analyzed using the Hyperquad2013 software package.

[2] = pH-potentiometry of 1:1 ligand and Fe3+ solution (complex protonation constants, speciation); type: physicochemical; details: Fe^3+ complex, 0.1 M NaCl, 310 K; for log KML/ML(OH): 7.0 mM each Fe and ligand, [ML]/[ML(OH)][H], not an absolute protonation constant; for log KHML: KHML = [HML]/[H][ML]; for log KML: footnote d only: pH-potentiometry
Protocol: as §1

[3] = Estimation of log K (formation constant) from EDTA competition assay, HPLC; type: physicochemical; details: Fe^3+ complex; estimated from Kcomp using EDTA challenge; KML = [ML]/[M][L]
From the text: The [Fe(PyCy2AI)]^+ formation constant was estimated from direct competition with EDTA at pH 4.4, I=0.1 M KNO3, and 310 K. Product distribution at equilibrium was estimated from an HPLC analysis of the reaction mixture (HPLC method A1). The equilibrium concentrations of [Fe(PyCy2AI)]^+ were quantified according to a linear calibration plot of HPLC peak area as a function of chelate concentration. An equilibrium constant, Keq, was estimated using Eq 4A,
The conditional (pH 4.4) formation constant, Kcond, was estimated from Keq and the previously (Kcond of Fe-EDTA measured under identical conditions using Eq 4B,
Under HPLC experimental conditions that cannot distinguish between chemical forms of the complex, the conditional stability constant can be estimated from the concentration coefficient of the ligand “L”, or PyCy2AI^2−, species (αL), which is known from the ligand pH-titration data. The formation constant was thus estimated using Eq 4C,
The HPLC assay conditions were chosen specifically to minimize contributions from ‘side products’ such as [Fe(HPyCy2AI)]^2+, [Fe(PyC2AI)(OH)], or [Fe(HEDTA)], which together we estimate to contribute <5% and <2% of total PyCy2AI and EDTA speciation.

[4] = Dimerization constant from concentration dependence on relaxivity at pH 9.0; type: physicochemical; details: Fe^3+ complex, pH 9.0, 310 K
From the text: (§2) The dissociation constant for (ML)2O formation was estimated from the concentration dependence on r1 at pH 9.0, under these experimental conditions, complexes speciation is comprised near entirely by ML(OH) and the corresponding (ML)2O dimer and r1 can be expressed as Eq 7A, […]
r1=r1^monαmon+r1^dimαdim (Eq 7A) where r1^mon and r1^dim are the r1 corresponding to ML(OH) and (ML)2O and αmon and αdim are the fraction of total [Fe] comprised by each.
The concentration dependence on monomer vs. dimer speciation is governed by the equilibrium constant (Kd) in Eq 7B, Eq 7B can be rearranged to the corresponding quadratic equation, Eq 7C, and concentration of dimer solved by Eq 7D, Thus, the concentration dependence on ri was fit to a 3 parameter fit based on Eqs 7A-7D, yielding estimates of r1^mon, r1^dim, and Kd.

[5] = Dimerization constant from concentration dependence on extinction coefficient at 342 nm (UV-vis); type: physicochemical; details: Fe^3+ complex, pH 9.0, 310 K
Protocol: UV-vis spectra were recorded on a SpectraMax M2 spectrophotometer using quartz cuvettes with a 1 cm path length. Extinction coefficients recorded at pH 9 (ε, M^−1cm^−1) were estimated by dividing absorbance by sample Fe concentration.

[6] = Fe^3+ complexes of reference ligands; method and conditions not given; cited from earlier work
[7] = Relaxivity measurements (r1) of Fe-PyCy2AI species; type: physicochemical; details: Fe^3+ complex; estimated from pH dependence on r1
Protocol: Relaxivity measurements were performed on a Bruker mq60 Minispec, 1.41 T, and on an 11.7 T Varian NMR spectrometer at 37° C. Longitudinal (T1) relaxation times were measured via an inversion recovery experiment using 10 inversion times of duration ranging between 0.05 s T1 and 5 s T1. Transverse (T2) relaxation times were measured using a Carl-Purcell-Meiboom-Gill spin-echo experiment. Under experimental conditions where 1/T1,2 increased linearly with increasing [Fe], relaxivity (r2i=1,2) was determined from the slope of a plot of 1/Ti(i=1,2) vs. [Fe] for at least 4 concentrations. Under conditions where non-negligible dimerization occurs, plots of 1/T1,2 vs. [Fe] are non-linear and r1,2 were estimated by dividing the Fe induced increase in 1/T1,2 by [Fe]. […]
as §2
Magnetic resonance imaging was performed using a Bruker Biospec 4.7 T system. […] T1 values for each compound was determined using a 2D rapid acquisition refocused echo (RARE) sequence of flip angle (FA)=90°, echo time (TE)=20 ms, repetition time (TR) ranging from 146-7500 ms, acquisition matrix=256×128, field of view=64×32 mm, slice thickness 1 mm. […]

SMILES	log KLH2 [1]	log KLH3 [1]	log KLH4 [1]	log KLH [1]	log KML/ML(OH) [2]	log KHML ([2]; 7.0 mM ligand and Fe^3+)	log KMLH-1/MLH-2 ([2]; 7.0 mM ligand and Fe^3+, [MLH-1]/[MLH-2][H])	log KML [3]	Dimerization Ka ([4]; 1.4 T) [mM⁻¹]	Dimerization Ka ([4]; 4.7 T) [mM⁻¹]	Dimerization Ka ([4]; 11.7 T) [mM⁻¹]	Dimerization Ka [5] [mM⁻¹]	log KML ([2]; 7.0 mM ligand and Fe^3+)	Dimerization Ka [6] [mM⁻¹]	log KML/ML(OH) [7]
O=C(O)CN(Cc1c[nH]cn1)C1CCCC[C@@H]1N(CC(=O)O)Cc1ccccn1 (mixture of isomers) [PyCy2AI, (±)-trans-N-((1H-imidazol-4-yl)methyl)-N′-(picolyl)-N,N′-cyclohexane-1,2-diamine diacetate bis-trifluoroacetic acid]	6.44 ± 0.03	4.23 ± 0.033	2.27 ± 0.05	10.62 ± 0.04	6.46 ± 0.03	2.91 ± 0.05	10.24 ± 0.05	23.9 ± 0.03^c	2.3 ± 0.57	5.1 ± 2.7	7.4 ± 5.5	6.2 ± 1.5	–	–	–
O=C(O)CN(CC(=O)O)C1CCCCC1N(CC(=O)O)CC(=O)O (stereo not shown) [CyDTA, 1,2-Cyclohexylenedinitrilotetraacetic acid]	6.12	3.49	2.40	12.3	9.57	–	–	–	–	–	–	–	29.1	0.012	–
O=C(O)CN(CCN(CC(=O)O)CC(=O)O)CC(=O)O [EDTA, Ethylenediaminetetraacetic acid]	6.13	2.69	2.00	10.19	7.37	1.3	–	–	–	–	–	–	25.1	0.44	–
O=C(O)CN(CCO)CCN(CC(=O)O)CC(=O)O [HEDTA, Hydroxyethylethylenediaminetriacetic acid]	–	–	–	–	–	–	–	–	–	–	–	–	–	0.24	–
CC(CN(CC(=O)O)CC(=O)O)N(CC(=O)O)CC(=O)O (stereo not shown) [PDTA, N,N,N′,N′-1,2-propylenediaminetetracetic acid]	–	–	–	–	–	–	–	–	–	–	–	–	–	0.19	–
O=C(O)CN(CC(=O)O)[C@H]1CCCC[C@@H]1N(CC(=O)O)Cc1ccccn1 [PyC3A]	6.39	3.13	–	10.16	–	–	–	26.0^c	–	–	–	–	–	–	8.50^g
